{
  "source": "paper PMC10251843",
  "about": "(Animals : an Open Access Journal from MDPI, 2023)",
  "conditions_in_all_cases": "mean ± SD",
  "key": {"plasma protein [1]": {"tested_on": "plasma protein", "assay": "Plasma protein binding ratio (PPBR) by ultrafiltration, grass carp plasma", "format": "in vitro ADME, grass carp (Ctenopharyngodon idella)", "description": "(§1) The detailed procedures and the pretreatment of the ultrafiltration unit (UFU) were in line with the previous reports. In brief, the nonspecific absorption (NSB) of UFU was first checked before and after pretreatment of 5% Tween 80. […] Firstly, 100 μL of the sample was used to evaluate the initial concentration before centrifugation. […] To reduce the NSB of UFU, 100 μL of 5% Tween 80 was used to treat UFU at 25 °C for 5 min, and 0.5 mL of physiological saline was used to wash off Tween 80. The NSB of UFU was repeatedly determined again in light of the above-mentioned method.\n(§2) The samples of sterile physiological saline were detected without extraction by HPLC. As for the samples of plasma, 0.1 mL of plasma was decanted into a 10 mL centrifugation tube. The extraction method is the same as the reported literature.\n(§3) The proportion of the mobile phase was 82:18 (water containing 0.2% formic acid and pure acetonitrile, v/v), following the flow rate of 0.8 mL/min. The excitation wavelength was 280 nm. The emission wavelength was 450 nm."}, "plasma protein [2]": {"tested_on": "plasma protein", "assay": "Plasma protein binding ratio (PPBR) by ultrafiltration, yellow catfish plasma", "format": "in vitro ADME, yellow catfish (Pelteobagrus fulvidraco)", "description": "as §1, §2, §3"}, "plasma protein [3]": {"tested_on": "plasma protein", "assay": "Plasma protein binding ratio (PPBR) by ultrafiltration, largemouth bass plasma", "format": "in vitro ADME, largemouth bass (Micropterus salmoides)", "description": "as §1, §2, §3"}, "[4]": {"conditions": "1 μg/mL, 15 °C, n = 3, listed as EF"}, "[5]": {"conditions": "1 μg/mL, 25 °C, n = 3, listed as Enrofloxacin"}, "[6]": {"conditions": "5 μg/mL, 15 °C, n = 3, listed as Enrofloxacin"}, "[7]": {"conditions": "5 μg/mL, 25 °C, n = 3, listed as Enrofloxacin"}, "[8]": {"conditions": "10 μg/mL, 15 °C, n = 3, listed as EF"}, "[9]": {"conditions": "10 μg/mL, 15 °C, n = 3, listed as Enrofloxacin"}, "[10]": {"conditions": "10 μg/mL, 20 °C, n = 3, listed as Enrofloxacin"}, "[11]": {"conditions": "10 μg/mL, 25 °C, n = 3, listed as Enrofloxacin"}, "[12]": {"conditions": "5 μg/mL, 20 °C, n = 3, listed as Enrofloxacin"}},
  "note": "Marks after values point to notes of the source that are not given here.",
  "data": [
    {"smiles": "CCN1CCN(c2cc3c(cc2F)c(=O)c(C(=O)O)cn3C2CC2)CC1", "note": "[Enrofloxacin (EF), Enrofloxacin]", "values": [
      {"measurement": "PPBRs (%)", "setting": "plasma protein [1]; 1 μg/mL, 15 °C, n = 3", "result": "60.52 ± 0.99 ^a %"},
      {"measurement": "PPBRs (%)", "setting": "plasma protein [1]; [4]", "result": 60.52, "unit": "%"},
      {"measurement": "PPBRs (%)", "setting": "plasma protein [1]; 1 μg/mL, 20 °C, n = 3", "result": "51.27 ± 1.56 ^a %"},
      {"measurement": "PPBRs (%)", "setting": "plasma protein [1]; 1 μg/mL, 20 °C, n = 3, listed as Enrofloxacin", "result": "51.27 ± 1.56 ^b %"},
      {"measurement": "PPBRs (%)", "setting": "plasma protein [1]; 1 μg/mL, 25 °C, n = 3", "result": "50.09 ± 2.06 ^a %"},
      {"measurement": "PPBRs (%)", "setting": "plasma protein [1]; [5]", "result": "50.09 ± 2.06 ^b %"},
      {"measurement": "PPBRs (%)", "setting": "plasma protein [1]; 5 μg/mL, 15 °C, n = 3", "result": "33.77 ± 0.07 ^B %"},
      {"measurement": "PPBRs (%)", "setting": "plasma protein [1]; [6]", "result": "33.77 ± 0.07 ^a %"},
      {"measurement": "PPBRs (%)", "setting": "plasma protein [1]; 5 μg/mL, 20 °C, n = 3", "result": "22.07 ± 1.19 ^B %"},
      {"measurement": "PPBRs (%)", "setting": "plasma protein [1]; 5 μg/mL, 25 °C, n = 3", "result": "23.36 ± 3.86 ^B %"},
      {"measurement": "PPBRs (%)", "setting": "plasma protein [1]; [7]", "result": "23.36 ± 3.86 ^a %"},
      {"measurement": "PPBRs (%)", "setting": "plasma protein [1]; 10 μg/mL, 15 °C, n = 3", "result": "16.95 ± 1.81 ^C %"},
      {"measurement": "PPBRs (%)", "setting": "plasma protein [1]; [8]", "result": 16.95, "unit": "%"},
      {"measurement": "PPBRs (%)", "setting": "plasma protein [1]; [9]", "result": "16.95 ± 1.81 ^a %"},
      {"measurement": "PPBRs (%)", "setting": "plasma protein [1]; 10 μg/mL, 20 °C, n = 3", "result": "8.34 ± 2.29 ^C %"},
      {"measurement": "PPBRs (%)", "setting": "plasma protein [1]; [10]", "result": "8.34 ± 2.29 ^b %"},
      {"measurement": "PPBRs (%)", "setting": "plasma protein [1]; 10 μg/mL, 25 °C, n = 3", "result": "5.52 ± 1.99 ^C %"},
      {"measurement": "PPBRs (%)", "setting": "plasma protein [1]; [11]", "result": "5.52 ± 1.99 ^B %"},
      {"measurement": "PPBRs (%)", "setting": "plasma protein [2]; 1 μg/mL, 20 °C, n = 3", "result": "46.10 ± 3.13 ^a %"},
      {"measurement": "PPBRs (%)", "setting": "plasma protein [2]; 1 μg/mL, 20 °C, n = 3, listed as EF", "result": 46.10, "unit": "%"},
      {"measurement": "PPBRs (%)", "setting": "plasma protein [2]; 1 μg/mL, 25 °C, n = 3", "result": "43.90 ± 3.62 ^a %"},
      {"measurement": "PPBRs (%)", "setting": "plasma protein [2]; 1 μg/mL, 25 °C, n = 3, listed as EF", "result": 43.9, "unit": "%"},
      {"measurement": "PPBRs (%)", "setting": "plasma protein [2]; [5]", "result": "43.90 ± 3.62 ^ab %"},
      {"measurement": "PPBRs (%)", "setting": "plasma protein [2]; 5 μg/mL, 15 °C, n = 3", "result": "22.53 ± 6.86 ^b %"},
      {"measurement": "PPBRs (%)", "setting": "plasma protein [2]; 5 μg/mL, 15 °C, n = 3, listed as EF", "result": 22.53, "unit": "%"},
      {"measurement": "PPBRs (%)", "setting": "plasma protein [2]; [6]", "result": "22.53 ± 6.86 ^a %"},
      {"measurement": "PPBRs (%)", "setting": "plasma protein [2]; 5 μg/mL, 20 °C, n = 3", "result": "21.24 ± 6.93 ^b %"},
      {"measurement": "PPBRs (%)", "setting": "plasma protein [2]; [12]", "result": "21.24 ± 6.93 ^a %"},
      {"measurement": "PPBRs (%)", "setting": "plasma protein [2]; 5 μg/mL, 25 °C, n = 3", "result": "17.29 ± 0.69 ^b %"},
      {"measurement": "PPBRs (%)", "setting": "plasma protein [2]; 5 μg/mL, 25 °C, n = 3, listed as EF", "result": 17.29, "unit": "%"},
      {"measurement": "PPBRs (%)", "setting": "plasma protein [2]; [7]", "result": "17.29 ± 0.69 ^a %"},
      {"measurement": "PPBRs (%)", "setting": "plasma protein [2]; 10 μg/mL, 15 °C, n = 3", "result": "9.66 ± 4.09 ^c %"},
      {"measurement": "PPBRs (%)", "setting": "plasma protein [2]; [8]", "result": 9.66, "unit": "%"},
      {"measurement": "PPBRs (%)", "setting": "plasma protein [2]; [9]", "result": "9.66 ± 4.09 ^ab %"},
      {"measurement": "PPBRs (%)", "setting": "plasma protein [2]; 10 μg/mL, 20 °C, n = 3", "result": "13.52 ± 4.74 ^b %"},
      {"measurement": "PPBRs (%)", "setting": "plasma protein [2]; 10 μg/mL, 20 °C, n = 3, listed as EF", "result": 13.52, "unit": "%"},
      {"measurement": "PPBRs (%)", "setting": "plasma protein [2]; [10]", "result": "13.52 ± 4.74 ^a %"},
      {"measurement": "PPBRs (%)", "setting": "plasma protein [2]; 10 μg/mL, 25 °C, n = 3", "result": "4.36 ± 0.58 ^c %"},
      {"measurement": "PPBRs (%)", "setting": "plasma protein [2]; 10 μg/mL, 25 °C, n = 3, listed as EF", "result": 4.36, "unit": "%"},
      {"measurement": "PPBRs (%)", "setting": "plasma protein [2]; [11]", "result": "4.36 ± 0.58 ^b %"},
      {"measurement": "PPBRs (%)", "setting": "plasma protein [3]; 1 μg/mL, 15 °C, n = 3", "result": "35.11 ± 5.18 ^a %"},
      {"measurement": "PPBRs (%)", "setting": "plasma protein [3]; [4]", "result": 35.11, "unit": "%"},
      {"measurement": "PPBRs (%)", "setting": "plasma protein [3]; 1 μg/mL, 20 °C, n = 3", "result": "37.93 ± 6.11 ^a %"},
      {"measurement": "PPBRs (%)", "setting": "plasma protein [3]; 1 μg/mL, 25 °C, n = 3", "result": "39.12 ± 1.72 ^a %"},
      {"measurement": "PPBRs (%)", "setting": "plasma protein [3]; 5 μg/mL, 15 °C, n = 3", "result": "14.39 ± 0.61 ^b %"},
      {"measurement": "PPBRs (%)", "setting": "plasma protein [3]; [6]", "result": "14.39 ± 0.61 ^a %"},
      {"measurement": "PPBRs (%)", "setting": "plasma protein [3]; 5 μg/mL, 20 °C, n = 3", "result": "17.46 ± 2.82 ^b %"},
      {"measurement": "PPBRs (%)", "setting": "plasma protein [3]; [12]", "result": "17.46 ± 2.82 ^ab %"},
      {"measurement": "PPBRs (%)", "setting": "plasma protein [3]; 5 μg/mL, 25 °C, n = 3", "result": "23.20 ± 5.87 ^b %"},
      {"measurement": "PPBRs (%)", "setting": "plasma protein [3]; 10 μg/mL, 15 °C, n = 3", "result": "9.30 ± 5.15 ^C %"},
      {"measurement": "PPBRs (%)", "setting": "plasma protein [3]; [8]", "result": 9.30, "unit": "%"},
      {"measurement": "PPBRs (%)", "setting": "plasma protein [3]; [9]", "result": "9.30 ± 5.15 ^a %"},
      {"measurement": "PPBRs (%)", "setting": "plasma protein [3]; 10 μg/mL, 20 °C, n = 3", "result": "10.84 ± 1.08 ^C %"},
      {"measurement": "PPBRs (%)", "setting": "plasma protein [3]; [10]", "result": "10.84 ± 1.08 ^a %"},
      {"measurement": "PPBRs (%)", "setting": "plasma protein [3]; 10 μg/mL, 25 °C, n = 3", "result": "7.77 ± 2.10 ^C %"},
      {"measurement": "PPBRs (%)", "setting": "plasma protein [3]; [11]", "result": "7.77 ± 2.10 ^a %"}
    ]}
  ]
}
